# According to patent publication US12357711B2, “PSMA binding dual mode radiotracer and therapeutic” (Technische Universität München, priority 2019, dated 2025):
# System: SCID mice
# Assay: Preclinical dosimetry from biodistribution in mice, extrapolated to 70-kg Standard Adult (OLINDA/EXM 1.0)
# Format: in vivo
# Settings: 1.0 h bladder voiding interval
# Experimental: 3-5 mice were injected per timepoint with a mean 25.6±3.6 MBq of 18F-rhPSMA-7 and 28.5±4.8 MBq of 18F-rhPSMA-7.3, respectively. Mice, severe combined immunodeficiency (SCID) were used for the experiments.
# Mice were sacrificed at the following timepoints: • ^18F-rhPSMA-7: 10, 20, 40, 60, 120 and 180 minutes after administration. • ^18F-rhPSMA-7.3: 10, 60, 120, 180 and 300 minutes after administration.
# Urine, blood, heart, lung, spleen, pancreas, liver, stomach (emptied), small intestine (emptied), large intestine (emptied), kidneys, bladder, testis, fat, muscle (partial, femoral), femur, tail and brain. Urine was collected with a pipette in the CO2 gas chamber. In case of missing urination in the chamber the bladder was aspirated with an insulin syringe. Blood was withdrawn instantly after sacrifice with an insulin syringe from the heart. All other tissues and organs were dissected and transferred directly in plastic containers.
# The counting rates of measurement samples were automatically corrected for decay. The radioactivity distribution ratios (unit: percentage of the injected dose (% ID) in the measurement samples were determined using the equation below. The sum of the counting rates from all measurement samples obtained from one mouse was designated as the counting rate for administrated radioactivity.
# The radioactivity distribution ratio per unit weight of the measurement sample (unit: % ID/g) excluding urine and feces samples was determined by using the equation below. The weight of the measurement sample was determined by subtraction of the empty measurement container from the container including the sample.
# For consistency of statistical calculations for each radiotracer the same number of time-points for ^18F-rhPSMA-7 and ^18F-rhPSMA-7.3 was used. Therefore, for ^18F-rhPSMA-7 the 10 min and 20 min time points were combined creating a 15 min endpoint.
# The time-integral of activity for the accumulation in the significant source organs (AUCs) were generated both with numerical integration and physical decay according to J Juan et al., Journal of Pharmaceutical Sciences, 1993, 82:762-763.
# In brief, to calculate a human dosimetry from the biodistribution in the mice, an extrapolation was necessary to account for the differences between the animals and humans. Normal-organ radiation doses were estimated for the 70-kg Standard Adult anatomic model using time-depending organ activity concentrations (in percent of the injected dose per gram, % ID/g) and total-body activities measured in the biodistribution studies in mice.
# Tissue activity concentrations in mice were converted to tissue fractional activities in the 70-kg Standard Adult using the relative fractional organ masses in the Standard Adult and the “standard” 25-gramm mouse. Time-dependent total-body activity was fit to an exponential function and the difference between the injected activity and the total-body activity was assumed to be excreted to the urine because activity concentrations in the liver and GI tracer were low at all time points studied.
# Organ residence time was calculated by numerical integration using the trapezoidal rule and the rest-of-body ^18F residence times was calculated as the difference between the total-body residence time and the sum of the organ and urine residence times. The bladder contents residence time was estimated using the dynamic voiding model in the OLINDA/EXM 1.0 dosimetry software. Finally, the Standard Adult mean organ dose equivalents (in mSv/MBq) and effective dose (also in mSv/MBq) were then calculated using OLIN DA/EXM 1.0.
# Final calculation of radiation absorbed dose and dosimetry from biodistribution in mice: The tissues or organs in which a significant accumulation of radioactivity occurs (i.e., source organ) were kidney, spleen, lung, liver and heart. With respect to activity accumulation and clearance, a rapid clearance from blood and clearance to urine but relatively slow build-up in kidney was found.
smiles,measurement,value
"CC(C)(C)[Si](F)(c1ccc(C(=O)NC[C@@H](NC(=O)CC[C@@H](C(=O)O)N2CCN(CC(=O)[O-])CCN(CC(=O)[O-])CCN(CC(=O)[O-])CC2)C(=O)N[C@H](CCCCNC(=O)CCC(=O)NCCC[C@@H](NC(=O)CC[C@H](NC(=O)N[C@@H](CCC(=O)O)C(=O)O)C(=O)O)C(=O)O)C(=O)O)cc1)C(C)(C)C.[Ga+3] [rhPSMA7.3, [^19F][^natGa]D-Dap-S-DOTAGA-rhPSMA7]",Adrenals ED Cont.,5.46E−05 mSv/MBq
same,Adrenals EDE Cont.,0.00E000 mSv/MBq
same,Adrenals dose Alpha,0.00E000 mSv/MBq
same,Adrenals dose Beta,3.12E−03 mSv/MBq
same,Adrenals dose Photon,7.79E−03 mSv/MBq
same,Adrenals dose Total,1.09E−02 mSv/MBq
same,Brain ED Cont.,3.59E−05 mSv/MBq
same,Brain EDE Cont.,0.00E000 mSv/MBq
same,Brain dose Alpha,0.00E000 mSv/MBq
same,Brain dose Beta,3.12E−03 mSv/MBq
same,Brain dose Photon,4.06E−03 mSv/MBq
same,Brain dose Total,7.18E−03 mSv/MBq
same,Breasts ED Cont.,3.32E−04 mSv/MBq
same,Breasts EDE Cont.,9.97E−04 mSv/MBq
same,Breasts dose Alpha,0.00E000 mSv/MBq
same,Breasts dose Beta,3.12E−03 mSv/MBq
same,Breasts dose Photon,3.53E−03 mSv/MBq
same,Breasts dose Total,6.65E−03 mSv/MBq
same,Gallbladder Wall ED Cont.,0.00E000 mSv/MBq
same,Gallbladder Wall EDE Cont.,0.00E000 mSv/MBq
same,Gallbladder Wall dose Alpha,0.00E000 mSv/MBq
same,Gallbladder Wall dose Beta,3.12E−03 mSv/MBq
same,Gallbladder Wall dose Photon,7.11E−03 mSv/MBq
same,Gallbladder Wall dose Total,1.02E−02 mSv/MBq
same,Heart Wall ED Cont.,0.00E000 mSv/MBq
same,Heart Wall EDE Cont.,0.00E000 mSv/MBq
same,Heart Wall dose Alpha,0.00E000 mSv/MBq
same,Heart Wall dose Beta,1.32E−03 mSv/MBq
same,Heart Wall dose Photon,5.36E−03 mSv/MBq
same,Heart Wall dose Total,6.68E−03 mSv/MBq
same,Kidneys ED Cont.,3.58E−04 mSv/MBq
same,Kidneys EDE Cont.,4.29E−03 mSv/MBq
same,Kidneys dose Alpha,0.00E000 mSv/MBq
same,Kidneys dose Beta,5.11E−02 mSv/MBq
same,Kidneys dose Photon,2.04E−02 mSv/MBq
same,Kidneys dose Total,7.16E−02 mSv/MBq
same,LLI Wall ED Cont.,1.39E−03 mSv/MBq
same,LLI Wall EDE Cont.,6.94E−04 mSv/MBq
same,LLI Wall dose Alpha,0.00E000 mSv/MBq
same,LLI Wall dose Beta,3.12E−03 mSv/MBq
same,LLI Wall dose Photon,8.45E−03 mSv/MBq
same,LLI Wall dose Total,1.16E−02 mSv/MBq
same,Liver ED Cont.,2.92E−04 mSv/MBq
same,Liver EDE Cont.,0.00E000 mSv/MBq
same,Liver dose Alpha,0.00E000 mSv/MBq
same,Liver dose Beta,9.70E−04 mSv/MBq
same,Liver dose Photon,4.87E−03 mSv/MBq
same,Liver dose Total,5.84E−03 mSv/MBq
same,Lungs ED Cont.,7.90E−04 mSv/MBq
same,Lungs EDE Cont.,7.90E−04 mSv/MBq
same,Lungs dose Alpha,0.00E000 mSv/MBq
same,Lungs dose Beta,1.95E−03 mSv/MBq
same,Lungs dose Photon,4.63E−03 mSv/MBq
same,Lungs dose Total,6.58E−03 mSv/MBq
same,Muscle ED Cont.,4.30E−05 mSv/MBq
same,Muscle EDE Cont.,0.00E000 mSv/MBq
same,Muscle dose Alpha,0.00E000 mSv/MBq
same,Muscle dose Beta,3.12E−03 mSv/MBq
same,Muscle dose Photon,5.47E−03 mSv/MBq
same,Muscle dose Total,8.59E−03 mSv/MBq
same,Osteogenic Cells ED Cont.,1.28E−04 mSv/MBq
same,Osteogenic Cells EDE Cont.,3.84E−04 mSv/MBq
same,Osteogenic Cells dose Alpha,0.00E000 mSv/MBq
same,Osteogenic Cells dose Beta,6.70E−03 mSv/MBq
same,Osteogenic Cells dose Photon,6.11E−03 mSv/MBq
same,Osteogenic Cells dose Total,1.28E−02 mSv/MBq
same,Ovaries ED Cont.,2.35E−03 mSv/MBq
same,Ovaries EDE Cont.,2.93E−03 mSv/MBq
same,Ovaries dose Alpha,0.00E000 mSv/MBq
same,Ovaries dose Beta,3.12E−03 mSv/MBq
same,Ovaries dose Photon,8.61E−03 mSv/MBq
same,Ovaries dose Total,1.17E−02 mSv/MBq
same,Pancreas ED Cont.,5.62E−05 mSv/MBq
same,Pancreas EDE Cont.,0.00E000 mSv/MBq
same,Pancreas dose Alpha,0.00E000 mSv/MBq
same,Pancreas dose Beta,3.12E−03 mSv/MBq
same,Pancreas dose Photon,8.12E−03 mSv/MBq
same,Pancreas dose Total,1.12E−02 mSv/MBq
same,Red Marrow ED Cont.,9.97E−04 mSv/MBq
same,Red Marrow EDE Cont.,9.97E−04 mSv/MBq
same,Red Marrow dose Alpha,0.00E000 mSv/MBq
same,Red Marrow dose Beta,2.22E−03 mSv/MBq
same,Red Marrow dose Photon,6.09E−03 mSv/MBq
same,Red Marrow dose Total,8.31E−03 mSv/MBq
same,Skin ED Cont.,6.57E−05 mSv/MBq
same,Skin EDE Cont.,0.00E000 mSv/MBq
same,Skin dose Alpha,0.00E000 mSv/MBq
same,Skin dose Beta,3.12E−03 mSv/MBq
same,Skin dose Photon,3.45E−03 mSv/MBq
same,Skin dose Total,6.57E−03 mSv/MBq
same,Small Intestine ED Cont.,5.45E−05 mSv/MBq
same,Small Intestine EDE Cont.,0.00E000 mSv/MBq
same,Small Intestine dose Alpha,0.00E000 mSv/MBq
same,Small Intestine dose Beta,3.12E−03 mSv/MBq
same,Small Intestine dose Photon,7.78E−03 mSv/MBq
same,Small Intestine dose Total,1.09E−02 mSv/MBq
same,Spleen ED Cont.,1.33E−04 mSv/MBq
same,Spleen EDE Cont.,1.59E−03 mSv/MBq
same,Spleen dose Alpha,0.00E000 mSv/MBq
same,Spleen dose Beta,1.52E−02 mSv/MBq
same,Spleen dose Photon,1.14E−02 mSv/MBq
same,Spleen dose Total,2.66E−02 mSv/MBq
same,Stomach Wall ED Cont.,1.19E−03 mSv/MBq
same,Stomach Wall EDE Cont.,0.00E000 mSv/MBq
same,Stomach Wall dose Alpha,0.00E000 mSv/MBq
same,Stomach Wall dose Beta,3.12E−03 mSv/MBq
same,Stomach Wall dose Photon,6.80E−03 mSv/MBq
same,Stomach Wall dose Total,9.92E−03 mSv/MBq
same,Testes ED Cont.,0.00E000 mSv/MBq
same,Testes EDE Cont.,0.00E000 mSv/MBq
same,Testes dose Alpha,0.00E000 mSv/MBq
same,Testes dose Beta,3.12E−03 mSv/MBq
same,Testes dose Photon,6.08E−03 mSv/MBq
same,Testes dose Total,9.20E−03 mSv/MBq
same,Thymus ED Cont.,4.09E−05 mSv/MBq
same,Thymus EDE Cont.,0.00E000 mSv/MBq
same,Thymus dose Alpha,0.00E000 mSv/MBq
same,Thymus dose Beta,3.12E−03 mSv/MBq
same,Thymus dose Photon,5.06E−03 mSv/MBq
same,Thymus dose Total,8.18E−03 mSv/MBq
same,Thyroid ED Cont.,4.13E−04 mSv/MBq
same,Thyroid EDE Cont.,2.48E−04 mSv/MBq
same,Thyroid dose Alpha,0.00E000 mSv/MBq
same,Thyroid dose Beta,3.12E−03 mSv/MBq
same,Thyroid dose Photon,5.15E−03 mSv/MBq
same,Thyroid dose Total,8.27E−03 mSv/MBq
same,Total Body ED Cont.,0.00E000 mSv/MBq
same,Total Body EDE Cont.,0.00E000 mSv/MBq
same,Total Body dose Alpha,0.00E000 mSv/MBq
same,Total Body dose Beta,3.45E−03 mSv/MBq
same,Total Body dose Photon,5.42E−03 mSv/MBq
same,Total Body dose Total,8.87E−03 mSv/MBq
same,ULI Wall ED Cont.,5.23E−05 mSv/MBq
same,ULI Wall EDE Cont.,0.00E000 mSv/MBq
same,ULI Wall dose Alpha,0.00E000 mSv/MBq
same,ULI Wall dose Beta,3.12E−03 mSv/MBq
same,ULI Wall dose Photon,7.33E−03 mSv/MBq
same,ULI Wall dose Total,1.05E−02 mSv/MBq
same,Urinary Bladder Wall ED Cont.,3.92E−03 mSv/MBq
same,Urinary Bladder Wall EDE Cont.,4.70E−03 mSv/MBq
same,Urinary Bladder Wall dose Alpha,0.00E000 mSv/MBq
same,Urinary Bladder Wall dose Beta,5.18E−02 mSv/MBq
same,Urinary Bladder Wall dose Photon,2.66E−02 mSv/MBq
same,Urinary Bladder Wall dose Total,7.84E−02 mSv/MBq
same,Uterus ED Cont.,7.13E−05 mSv/MBq
same,Uterus EDE Cont.,8.55E−04 mSv/MBq
same,Uterus dose Alpha,0.00E000 mSv/MBq
same,Uterus dose Beta,3.12E−03 mSv/MBq
same,Uterus dose Photon,1.11E−02 mSv/MBq
same,Uterus dose Total,1.43E−02 mSv/MBq
